The numbers were not newly measured in patent US11478445B2, “Method for treating acute myeloid leukemia” (Bionomics Limited, priority 2017, dated 2022), which cites them from elsewhere.

Data set [1] has as its system KG1 cells. The note with it: Petit et al. 2008, Madlambayan et al. 2010; cited from earlier work.
Data set [2] relates to KG1 cells. To be noted: Petit et al. 2008; cited from earlier work.

In the case of `COc1ccc(/C=C\c2cc(OC)c(OC)c(OC)c2)c(O)c1O` [OXi4500, combretastatin-A1], in data set [1], the “total ROS levels” value is “increase in total ROS levels”.

For the compound `COc1ccc(/C=C\c2cc(OC)c(OC)c(OC)c2)cc1OP(=O)(O)O` [combretastatin-A4-P], the “total ROS levels” value in data set [1] is reported as “increase in total ROS levels”. Also, in data set [2], the cell cycle result was “induces G2/M cell cycle arrest”.
